Data as given in patent US20240059688A1, “CONOLIDINE ANALOGUES AS SELECTIVE ACKR3 MODULATORS FOR THE TREATMENT OF CANCER” (Luxembourg Institute of Health (LIH), priority 2020, published 2024).

How the values were obtained:
Type in all cases: cell-based
[1] = molecular target: T1, CCR3 (Homo sapiens, UniProt P51677); assay: NanoBiT β-arrestin-1 recruitment, receptor selectivity panel, CCR3; conditions: higher concentrations (3 μM, 10 μM); FIG. 3 sections B and C
T1 construct: expressed in transfected cells; host or cells: U87
T1 sequence (P51677 1-355): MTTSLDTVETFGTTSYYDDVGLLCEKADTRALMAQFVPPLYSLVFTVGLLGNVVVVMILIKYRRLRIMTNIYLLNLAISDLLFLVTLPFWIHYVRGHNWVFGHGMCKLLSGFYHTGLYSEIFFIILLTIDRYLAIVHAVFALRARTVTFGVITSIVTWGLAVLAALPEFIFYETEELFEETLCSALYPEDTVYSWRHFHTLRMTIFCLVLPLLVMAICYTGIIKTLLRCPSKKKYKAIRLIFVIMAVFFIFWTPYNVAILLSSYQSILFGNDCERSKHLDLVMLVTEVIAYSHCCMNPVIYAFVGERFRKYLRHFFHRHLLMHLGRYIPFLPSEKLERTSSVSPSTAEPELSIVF
Protocol: (§1) To further assess the selectivity profile of the compounds of the invention towards ACKR3, the ability to activate the 21 classical and 4 atypical chemokines receptors and related receptors was tested using the NanoBiT assay based β-arrestin-1 recruitment described previously. The 4 classical opioid receptors described above were also included in the experimental setup. The compounds WW-1 (conolidine) and WW-12 were tested at three different concentrations, 1 μM, 3 μM and 10 μM.
This possible off-target effect was further characterized by comparing the ability of the two molecules to activate receptors ACKR4, CX3CR1 and CCR3 with reference ligands for the receptors, namely CCL19, CX3CL1 and CCL13.
Ligand-induced β-arrestin recruitment to chemokine and opioid receptors was monitored by NanoLuc complementation assay (NanoBiT, Promega). […] Ligand-induced, β-arrestin to GPCRs was evaluated with a Mithras LB940 luminometer (Berthold Technologies, running on MicroWin 2010 5.19 software (Mikrotek Laborsysteme)) for 20 minutes.
(§2) For single dose screening experiments on all chemokine receptors(FIG. 3), the results are represented as percentage of signal monitored with 100 nM of one known agonist chemokine listed in the IUPHAR repository of chemokine receptor ligands which was added as positive control.

[2] = molecular target: T2, ACKR3 (Homo sapiens, UniProt P25106); assay: NanoBiT β-arrestin-1 recruitment, receptor selectivity panel, ACKR3; set-up: expressed in transfected cells; host or cells: U87; conditions: for modulation of ACKR3 in comparison with opioid receptor reference molecules (β-arrestin1 recruitment): NanoBiT, ACKR3 versus MOR, DOR, KOR, NOP, FIG. 5; for activation of ACKR3 (β-arrestin-1 recruitment) in receptor panel: concentration of 1 μM, FIG. 3 section A
Protocol: as §1
Target sequence in this assay (P25106 whole entry): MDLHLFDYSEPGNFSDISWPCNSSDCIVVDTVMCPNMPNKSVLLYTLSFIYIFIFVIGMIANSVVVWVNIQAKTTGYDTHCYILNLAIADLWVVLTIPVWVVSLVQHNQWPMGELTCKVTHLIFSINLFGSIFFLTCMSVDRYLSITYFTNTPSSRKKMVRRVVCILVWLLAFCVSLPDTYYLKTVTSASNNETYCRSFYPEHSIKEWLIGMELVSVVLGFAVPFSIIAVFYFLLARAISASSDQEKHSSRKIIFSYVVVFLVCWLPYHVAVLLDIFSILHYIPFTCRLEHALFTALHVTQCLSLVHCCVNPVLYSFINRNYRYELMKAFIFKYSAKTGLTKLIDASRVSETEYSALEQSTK
Target sequence in this assay (P49407 whole entry partner): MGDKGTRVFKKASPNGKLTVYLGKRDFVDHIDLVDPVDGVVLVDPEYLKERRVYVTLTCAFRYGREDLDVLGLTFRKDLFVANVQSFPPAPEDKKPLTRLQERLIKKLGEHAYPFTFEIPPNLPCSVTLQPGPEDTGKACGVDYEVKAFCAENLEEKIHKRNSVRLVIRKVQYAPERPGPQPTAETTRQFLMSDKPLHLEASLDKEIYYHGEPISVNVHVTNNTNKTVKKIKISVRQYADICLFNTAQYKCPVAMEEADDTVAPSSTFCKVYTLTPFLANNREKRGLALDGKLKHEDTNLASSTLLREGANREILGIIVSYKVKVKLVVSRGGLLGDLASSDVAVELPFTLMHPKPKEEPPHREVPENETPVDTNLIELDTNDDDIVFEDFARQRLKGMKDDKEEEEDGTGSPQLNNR
The ability of the compounds of the invention to activate ACKR3 and classical opioid receptors with reference synthetic molecules and approved pain medications such as morphine, fentanyl or buprenorphine that are known to modulate the classical opioid receptors MOR, DOR, KOR and NOP was also tested in NanoBiT based β-arerstin1 recruitment assay. […] The results are depicted in FIG. 5.
Ligand-induced β-arrestin recruitment to chemokine and opioid receptors was monitored by NanoLuc complementation assay (NanoBiT, Promega). In brief, 1.2×10^6 U87 cells were plated in 10-cm culture dishes and 48 hours later co-transfected with pNBe vectors encoding GPCRs (ACKR3, MOR, DOR, KOR, or NOP) C-terminally tagged with SmBiT and human β-arrestin-1 (arrestin-2) or β-arrestin-2 (arrestin-3) N-terminally fused to LgBiT. 48 hours post-transfection cells were harvested, incubated 25 minutes at 37° C. with Nano-Glo Live Cell substrate diluted 200-fold and distributed into white 96-well plates (5×10^4 cells per well). Ligand-induced, β-arrestin to GPCRs was evaluated with a Mithras LB940 luminometer (Berthold Technologies, running on MicroWin 2010 5.19 software (Mikrotek Laborsysteme)) for 20 minutes.
as §2

[3] = molecular target: T2, ACKR3; assay: ACKR3 internalization assay by flow cytometry in U87-ACKR3 cells; set-up: expressed in transfected cells; host or cells: U87-ACKR3 (ACKR3-negative U87 as control); conditions: 45 minutes at 37° C., anti-ACKR3 mAb 11G8, FIG. 6 section A
Protocol: For determination of receptor surface expression levels by flow cytometry, U87-ACKR3 cells were stimulated with WW-1 or WW-12 (50, 10, 5 1 μM) or BAM22 or ctrl peptides (1 μM) for 45 minutes at 37° C. The remaining surface-bound ligands were then removed by a brief wash with 150 mM NaCl, 50 mM glycine, pH 3 and twice with FACS buffer. Cell surface levels of ACKR3 were then measured by flow cytometry using a saturating concentration of receptor-specific mAb (clones 11G8) and a secondary phycoerythrin-conjugated F(ab′)2 fragment anti-mouse IgG (Jackson ImmunoResearch). Dead cells were excluded using the Zombie NIR fixable viability dye (BioLegend, catalog #423106, dilution 1:2000). Mean fluorescence intensity was quantified on a Novocyte Quanteon flow cytometer (ACEA Biosciences) using NovoExpress 1.4.1 (ACEA Biosciences).
Target sequence in this assay (P25106 whole entry): as the sequence (P25106 whole entry) above

[4] = molecular target: T2, ACKR3; assay: ACKR3-mediated uptake of Cy5-labeled BAM22 in U87-ACKR3 cells (imaging flow cytometry); set-up: expressed in transfected cells; host or cells: U87-ACKR3 (ACKR3-negative U87 as control); conditions: concentration-dependent, FIG. 7
Protocol: U87-ACKR3 cells were distributed into 96-well plates (2×10^5 cells per well in Opti-MEM). After 15-minute incubation at 37° C. with WW-1 or WW-12 or controls, Cy5-labeled BAM22 was added, incubated for 40 minutes at 37° C. and washed twice with FACS buffer. Dead cells were excluded using Zombie Green viability dye. Images of 1×10^4 in-focus living single cells were acquired with an ImageStream MKII imaging flow cytometer (Amnis, running on the INSPIRE Mark II software (EMD Millipore)) using 40× magnification (60× magnification for smNPCs). Samples were analyzed using Ideas6.2 software. The number of spots per cell was determined using a mask-based software wizard.
Target sequence in this assay (P25106 whole entry): as above

activation of CCR3 (β-arrestin-1 recruitment) in receptor panel [1] | modulation of ACKR3 in comparison with opioid receptor reference molecules (β-arrestin1 recruitment) [2] | activation of ACKR3 (β-arrestin-1 recruitment) in receptor panel [2] | ACKR3 internalization from the plasma membrane [3] | inhibition of uptake of Cy5-labelled BAM22 by ACKR3 [4] | SMILES
weak activation | specific ACKR3 activators | activated ACKR3 | able to induce receptor internalization | able to restrain the uptake | C/C=C1/CN2CC[C@H]1C(=O)c1[nH]c3ccccc3c1C2 [WW-1, (4E,5R)-4-ethylidene-1,4,5,7-tetrahydro-2,5-ethanoazocino[4,3-b]indol-6(3H)-one]
weak activation | specific ACKR3 activators | activated ACKR3 | able to induce receptor internalization | able to restrain the uptake | C/C=C1/CN(CCCCC)CC[C@H]1C(=O)c1cc2ccccc2[nH]1 [WW-12, [(3E,4R)-3-ethylidene-1-pentylpiperidin-4-yl](1H-indol-2-yl)methanone]
